Source: the SangsterLogP compilation
Blank lines part the entries; values can stand above or below the compound they belong to.

Tests used:
[1] = method code SF-RC, from DOI: 10.1248/cpb.38.3099, PMID: 2085895; conditions: pH 7.4
[2] = method code SF-AS, from DOI: 10.1021/jm00299a013, PMID: 5458368
[3] = method code SF-AS, from DOI: 10.1016/j.bmc.2008.07.057, PMID: 18706818; conditions: pH 7.4
[4] = method code SF-RC, from DOI: 10.1182/blood.v76.11.2389.bloodjournal76112389, PMID: 2257308; conditions: pH 7.4
[5] = method code SF-HPLC, from Blakemore, C.; Brown, H.; Durant, J.; Emmett, C.; Ganellin, R.; Parsons, E.; Rasmussen, C. (1980). SK&F 92994: a new histamine H2-receptor antagonist. COMMUNICATIONS: Part II. Br. J. Pharmacol., …
[6] = method code SF-AS, from DOI: 10.1002/jhet.5570150704
[7] = not given; remark: listed apart in the source
[8] = method code SF-AS, from DOI: 10.1007/bf02922495
[9] = pH 1.0
[10] = method code SF-AS, from DOI: 10.1016/j.bmc.2007.10.035, PMID: 18029186; conditions: pH 7.4
[11] = not given; remark: listed apart in the source
[12] = method code SF-HPLC, from DOI: 10.1248/cpb.43.1894
[13] = method code SF-HPLC, from DOI: 10.1016/0378-5173(88)90220-7; conditions: pH 7.4
[14] = method code SF-EPR, from DOI: 10.1016/0003-9861(82)90097-2, PMID: 6284047; conditions: pH 7.4
[15] = method code SF-GLC, from DOI: 10.1016/0045-6535(83)90264-3
[16] = not given; remark: listed apart in the source
[17] = method code SF-AS, from DOI: 10.1016/0005-2728(86)90252-5, PMID: 3015209; conditions: pH 7.2
[18] = method code SF-GLC, from DOI: 10.1016/0147-6513(82)90020-3, PMID: 7106034
[19] = not given; remark: listed apart in the source
[20] = method code SF-C, from DOI: 10.1021/ja00901a033
[21] = method code SF, from DOI: 10.1002/em.2850190108, PMID: 1732104
[22] = method code SF-RC, from DOI: 10.1002/ps.2780300102; conditions: pH 2.0
[23] = method code SF-MS, from DOI: 10.1016/j.fluid.2014.01.017; conditions: pH 7.6
[24] = not given; remark: listed apart in the source
[25] = method code SF, from DOI: 10.1002/ps.2780340212; conditions: pH 7.0
[26] = not given; remark: listed apart in the source
[27] = method code SF-AS, from DOI: 10.1248/cpb.21.2309, PMID: 4775970; conditions: pH 3.3
[28] = method code SF-AS, from DOI: 10.1021/jm00162a004, PMID: 3023612
[29] = method code SF, from DOI: 10.1002/qsar.19920110207; conditions: pH 1.0
[30] = method code SF-HPLC, from DOI: 10.1002/jps.2600841008, PMID: 8801331
[31] = method code SF-AS, from DOI: 10.1080/09553007214550551, PMID: 4537457
[32] = method code SF-RC, from DOI: 10.1016/s0026-895x(25)10639-1, PMID: 1170492
[33] = method code SF-AS, from DOI: 10.1016/j.ejmech.2003.11.003, PMID: 14987836
[34] = method code SF-AS, from DOI: 10.2307/3577276, PMID: 2913608
[35] = not given; remark: listed apart in the source
[36] = method code SF-AS, from Frater-Schröder, M.; Alder, S.; Zbinden, G. (1976). Neurotoxic effects of pyridoxine and analogs in rats. Proc. Eur. Soc. Toxicol, 17, 277-284.; conditions: pH 7.4

logP: 2.68
Structure (SMILES): O=C(O)CCc1cccc(I)c1

logD [1]: 0.67
Structure (SMILES): CNC(=S)N/N=C(C)\C(C)=N/NC(=S)NC

logP [2]: -1
Structure (SMILES): Cc1ncc([N+](=O)[O-])n1CCCS(C)(=O)=O

logD [3]: -0.68
Structure (SMILES): CCCC1(C(N)=O)CCC=[N+]1[O-] (stereo not drawn)

logD [4]: -0.3
Structure (SMILES): CCc1c(O)c(=O)ccn1C

Structure (SMILES): CN(Cc1cccc(Br)c1)N=O
logP [5]: 1.65

logP [6]: 0.24
Structure (SMILES): CNC(=O)OCc1cccc(COC(=O)NC)n1

logP [7]: 0.64
Structure (SMILES): NS(=O)(=O)c1cc2c(cc1Cl)NC(C(Cl)Cl)NS2(=O)=O (stereo not drawn)

Structure (SMILES): N#CC(C#N)=Cc1ccc(Br)o1
logP [8]: 2.28

Structure (SMILES): O=C(O)C(c1ccc(Cl)cc1)c1ccc(Cl)cc1
logD [9]: 4.64

logD [10]: -1.25
Structure (SMILES): CN(CCO)C(=O)Cn1ccnc1[N+](=O)[O-]

logP [11]: 1.43
Structure (SMILES): NS(=O)(=O)c1nnc(-c2ccccc2Cl)s1

logP [12]: 3.59
Structure (SMILES): CSC(=S)C1=C(SC)CCC1

logD [13]: 1.28
Structure (SMILES): CNS(=O)(=O)c1ccc(C)cc1

logD [14]: 1
Structure (SMILES): CCC1(C)OCC(C)(C)N1[O] (stereo not drawn)

logP [15]: 3.15
Structure (SMILES): CSc1nc2ccccc2s1

logD [4]: -0.52
Structure (SMILES): COCCn1ccc(=O)c(O)c1C

logP [16]: -0.05
Structure (SMILES): O=[N+]([O-])c1nccn1C1OCC(I)CC1O (stereo not drawn)

logD [17]: 2
Structure (SMILES): N#CC(C#N)=NNc1ccc([N+](=O)[O-])cc1Cl

Structure (SMILES): O=S1OCC2C(CO1)C1(Cl)C(Cl)=C(Cl)C2(Cl)C1(Cl)Cl (stereo not drawn)
logP [18]: 3.83

logP [19]: 1.64
Structure (SMILES): CNC(=O)OCc1cccc(I)c1[N+](=O)[O-]

logP [20]: 2.45
Structure (SMILES): O=C(O)COc1ccc(Br)cc1

logP [7]: 0.42
Structure (SMILES): CC(CS)C(=O)N1CCC[C@H]1C(=O)O (stereo partly drawn)

logP [16]: 0.7
Structure (SMILES): O=[N+]([O-])C1NC=CN1C1OC(CI)C(O)C1O (stereo not drawn)

Structure (SMILES): O=[N+]([O-])c1cccc2cccc([N+](=O)[O-])c12
logP [21]: 2.52

Structure (SMILES): COc1nc(C)nc(NC(=O)NS(=O)(=O)c2ccccc2Cl)n1
logD [22]: 1.54

logD [23]: 2.53
Structure (SMILES): CCCCCCCC=O

logP [6]: 0.79
Structure (SMILES): Cc1nc(-c2ccccn2)no1

logD [1]: 2.66
Structure (SMILES): CNC(=S)NN=C(C)CC(C)=NNC(=S)NC

logP: 1.44
Structure (SMILES): O=C(O)CNC(=O)c1cccc(I)c1

logP [24]: 1.9
Structure (SMILES): COc1cccc(C(=O)O)c1

logD [25]: 0.8
Structure (SMILES): Cc1ccc(NC(N)=O)cc1

Structure (SMILES): Cc1ccc(C=C(C#N)C#N)o1
logP [8]: 2.03

logD ([26]; pH 7.2): 1.48
Structure (SMILES): N#CC(C#N)=NNc1cccc(O)c1

logD [27]: 2.19
Structure (SMILES): Cc1ccc(C)c(C(=O)NS(=O)(=O)c2ccc(N)cc2)c1

Structure (SMILES): CC(C)(C)C(=O)C(Oc1ccc(Cl)cc1)n1cncn1 (stereo not drawn)
logD [25]: 2.9

logD [22]: 0.01
Structure (SMILES): NC(=O)Nc1ccc(CC(=O)O)cc1

logP [28]: 0.04
Structure (SMILES): CCCCC1(C)CCC=[N+]1[O-] (stereo not drawn)

logP [28]: -0.1
Structure (SMILES): [O-][N+]1=CCCC12CCCC2

logD [29]: 1.61
Structure (SMILES): CC(=O)c1ccc(C(=O)O)cc1

logD ([30]; pH 7.4): 2.13
Structure (SMILES): Oc1cccc2ncccc12

logP [31]: 1.82
Structure (SMILES): COc1ccc(C(C)=O)cc1

logP [32]: 0.7
Structure (SMILES): CC(CSCC(C)=NNC(N)=S)=NNC(N)=S

Structure (SMILES): CC(=O)c1ccccc1[N+](=O)[O-]
logP [21]: 1.53

Structure (SMILES): CC(Oc1cc(Cl)c(Cl)cc1Cl)C(=O)O (stereo not drawn)
logD [9]: 3.8

logP [12]: 4.1
Structure (SMILES): COc1ccc(C(=CSC)C(=S)SC)cc1

logD [3]: -0.18
Structure (SMILES): CCCCC1(C(N)=O)CCC=[N+]1[O-] (stereo not drawn)

logD [23]: 2.06
Structure (SMILES): CCCC/C=C/C=O

logP [18]: 3.88
Structure (SMILES): CCN(CC)C(=S)SSC(=S)N(CC)CC

Structure (SMILES): CCOC(=O)C1=C(COCCN)NC(C)=C(C(=O)OC)C1c1ccccc1Cl (stereo not drawn)
logD ([30]; pH 11.0): 3.09

Structure (SMILES): CN(Cc1ccc(Br)cc1)N=O
logP [5]: 1.57

logP [33]: -0.19
Structure (SMILES): COC(=O)[C@@H]1CCCN1S(=O)(=O)N(CCCl)N=O

logD [13]: 2.95
Structure (SMILES): Cc1ccc(S(=O)(=O)N(C)C(=O)c2ccccc2)cc1

logD [17]: 2.1
Structure (SMILES): Cc1cccc(C)c1NN=C(C#N)C#N

logP [19]: 1.67
Structure (SMILES): CNC(=O)OCc1ccc(I)cc1[N+](=O)[O-]

logP [15]: -1.45
Structure (SMILES): O=C(O)c1c(C(=O)O)c(C(=O)O)c(C(=O)O)c(C(=O)O)c1C(=O)O

logP [34]: 1.2
Structure (SMILES): O=[N+]([O-])c1ccccc1NS(=O)(=O)c1[nH]cnc1[N+](=O)[O-]

logP [2]: 0.23
Structure (SMILES): CCCS(=O)(=O)CCn1c([N+](=O)[O-])cnc1C

logP [34]: 1.6
Structure (SMILES): COC(=O)c1ccccc1NS(=O)(=O)c1[nH]cnc1[N+](=O)[O-]

logD [14]: 1.81
Structure (SMILES): CC1(C)CCCC(C)(C)N1O

logP [24]: 1.08
Structure (SMILES): NC(=O)c1ccccc1C(N)=O

logD [29]: 1.56
Structure (SMILES): CC(=O)c1cccc(C(=O)O)c1

logP [33]: 1.03
Structure (SMILES): O=NN(CCCl)S(=O)(=O)N1CCCCC1

logP [11]: 0.22
Structure (SMILES): NS(=O)(=O)c1nnc(NS(=O)(=O)c2ccccc2)s1

logD [27]: 0.26
Structure (SMILES): Cc1nnc(NS(=O)(=O)c2ccc(N)cc2)s1

logP [35]: -0.11
Structure (SMILES): O=C(NCCO)c1cccnc1

Structure (SMILES): Cc1ncc(CO)c(C=O)c1O
logD [36]: -0.82

logP [32]: 1.4
Structure (SMILES): CNC(=S)NN=C(C)CSCC(C)=NNC(=S)NC

logD [10]: -1.16
Structure (SMILES): CC(=O)OC[C@H]1O[C@H](OCCN(C)C(=O)Cn2ccnc2[N+](=O)[O-])[C@@H](OC(C)=O)[C@@H](OC(C)=O)[C@@H]1OC(C)=O

Structure (SMILES): Cc1ncc(CO)c(CO)c1O
logD [36]: -0.77

logD ([26]; pH 3.0): 2.15
Structure (SMILES): N#CC(C#N)=NNc1ccc(C(=O)CCl)cc1

logP [20]: 1.08
Structure (SMILES): CC(=O)c1ccc(OCC(=O)O)cc1

logP [35]: 0.59
Structure (SMILES): CC(C)NC(=O)c1cccnc1
